Assay results as given in patent US10272117B2, “Methods of using an activator of cereblon for neural cell expansion and the treatment of central nervous system disorders” (Celgene Corporation, priority 2014, dated 2019).

System: zebrafish embryos
Test: Whole-mount in situ hybridization of gene expression in zebrafish embryos
Format: in vivo
Procedure: This process was carried out basically in accordance with the technique of Thisse et al. See High-resolution In Situ Hybridization to Whole-mount Zebrafish Embryos, Nat. Protcol., 3 (1) 59-69, (2008). The differences were that 5 mg/ml Torula yeast RNA was used as a blocker in the probe hybridization solution, and that 0.5% Blocking Reagent (Roche) was used as a blocker in the antibody reaction solution. The cDNA of the genes used as the probe (the six3.2 gene, the emx1 gene, the pax2.1 gene, the foxg1 gene, and the otx2 gene) were presents of the original provider. As the probe for the lhx2 gene, the one initially cloned by Ando was used. For the probes of the CRBN gene and related genes, primers were designed based on the EST database of zebrafish, and the probes were cloned from a cDNA library.
Expression of Pou5f1 (Oct3/4), Klf4, c-Myc, and HuC (Elavl3) in zebrafish embryos was analyzed by in situ hybridization. The embryos were fixed with 4% paraformaldehyde for 1 hour at room temperature and rinsed with phosphate buffered saline (PBS). The fixed embryos were refixed with 100% methanol and placed at −80° C. for over 12 hours. The embryos were defixed by rinsing with PBS, and the skin was digested with pronase (2 mg/ml), followed by refixation and defixation, and prehybridized in HYB* buffer (50% formamide, 5×SSC, 10 mM Citric acid, 0.1% Tween 20) for 15 minutes and in HYB+(added as 5 mg/ml torula (yeast) RNA, 50 μg/ml heparin to HYB*) for 1 hour at 65° C. After addition of 1 ng/μl of DIG (digoxigenin)-labeled probe, hybridization was performed for overnight at 65° C. After hybridization, the embryos were washed by 50% formamide in 2×SSC for 30 minutes (twice), 2×SSC for 15 minutes, 0.2×SSC for 30 minutes (twice) at 65° C. Then blocking treatment was done by 0.5% purified casein in PBSTw (PBS plus 0.1% Tween 20) at room temperature for 1 hour. After that, immunostaining was performed in 1/4000 dilution of anti-DIG Fab-AP fragment in 0.5% purified casein in PBSTw for 4 hours at room temperature.
After washing with PBSTw for 90 minutes, staining was carried out in the presence of substrate of alkaline phosphatase (Nitro blue tetrazolium and 5-bromo 4-chloro 3-indolyl phosphate) in 100 mM Tris pH 9.5, 50 mM MgCl2, 100 mM NaCl, and 0.1% Tween-20. Reaction was stopped by rapid exchange of reaction buffer to PBSTw and cleaned with glycerol serials (30%, 50%, and 70% in PBS).
Expression of Ascl1a and Pou3f2b in CRBN-overexpressing and Ikaros-knockdown zebrafish embryos was analyzed by in situ hybridization. The embryos were fixed with 4% paraformaldehyde for 1 hour at room temperature and rinsed with phosphate buffered saline (PBS). The fixed embryos were refixed with 100% methanol and placed at −80° C. for over 12 hours. The embryos were defixed by rinsing with PBS, and the skin was digested with pronase (2 mg/ml), followed by refixation and defixation, and prehybridized in HYB* buffer (50% formamide, 5×SSC, 10 mM Citric acid, 0.1% Tween 20) for 15 minutes and in HYB+(added as 5 mg/ml torula (yeast) RNA, 50 μg/ml heparin to HYB*) for 1 hour at 65° C. After addition of 1 ng/μl of DIG (digoxigenin)-labeled probe, hybridization was performed for overnight at 65° C. After hybridization, the embryos were washed by 50% formamide in 2×SSC for 30 minutes twice, 2×SSC for 15 minutes, 0.2×SSC for 30 minutes twice at 65° C. Then blocking treatment was done by 0.5% purified casein in PBSTw (PBS plus 0.1% Tween 20) at room temperature for 1 hour. After that, immunostaining was performed in 1/4000 dilution of anti-DIG Fab-AP fragment in 0.5% purified casein in PBSTw for 4 hours at room temperature.
Expression of Sox2, Pou5f1 (Oct3/4), c-Myc, and Klf4 in zebrafish embryos was analyzed in untreated and CRBN-overexpressing zebrafish embryos by in situ hybridization. Overexpression was performed as follows: single-cell stage embryos were microinjected with 250 ng/μl of capped mRNA synthesized in vitro. […]

Substance | expression of Ascl1a (25 hpf) | expression of Pou3f2b (26 hpf) | expression of Pou5f1 (Oct3/4) in the second and fourth rhombomeres in the hindbrain (10 hpf and 11 hpf) | expression of Huc in the brain and spinal cord (11 hpf) | number of HuC-positive neural progenitor cells in the brain and spinal cord (15 hpf) | number of the telencephalic neurons and the spinal cord neurons (16 hpf) | expression of Klf4 in the rostral portion of the neural tube (18 hpf) | expression of c-Myc in the tectal proliferation zone and ciliary marginal zone (30 hpf)
5′-TTCCTGTGCCTCCTCAGTCTCCATC-3′ (all phosphorodiamidate morpholino (PMO)) [Ikaros-knockdown, 25-mer antisense morpholino oligonucleotide (AMO) used for the Ikaros gene knockdown] | remarkably increased | increased |  |  |  |  |  | 
5′-TGTGTTTCTTGTGCTTTTTGCCCAT-3′ (all phosphorodiamidate morpholino (PMO)) [BRD7-knockdown, 25-mer antisense morpholino oligonucleotide (AMO) used for the BRD7 gene knockdown] |  |  | increased | increased | increased | increased | increased | clearly increased
